Marks after values point to notes of the source that are not given here. No end group written: not given here.
Tests used:
Biofilm embedded SE = assay: MBEC Assay; format: cell-based, Salmonella enterica; details: at MICs; untreated 6.77 ± 0.02
Procedure: (§1) Peptides effect against biofilm embedded Salmonella: To analyze the ability of the peptides (P1, P2, and P4) to retain their inhibitory characteristics against biofilm protected Salmonella, Innovotech's MBEC Assay® (Innovotech Inc., AB, Canada) was conducted as previously detailed. Initially, 150 μL of 5×10^7 CFU/mL adjusted ST or SE suspension in LB media was aliquoted into the wells of MBEC inoculator plates containing polystyrene pegs and incubated for 36 h on a rocker platform at 37° C. to allow the biofilm formation. After biofilm formation, the pegs were washed to remove loosely adherent planktonic bacteria and transferred to a new 96-well plate containing peptides at MICs, with relevant controls, in 200 μL 25% LB media. The diluted LB media was used because it allows for slow bacterial growth to promote biofilm formation due to limited nutrients. The plate was incubated for 18 h at 37° C. with rotation at 150 rpm. Sterile media and DMSO were used as controls. Following incubation, the MICs of peptides in challenge plate were recorded. The pegs were transferred to new 96-well plate containing PBS and sonicated for 30 minutes to disrupt the biofilm. The sonicated suspensions were then ten-fold serially diluted and plated on LB agar plates to enumerate the biofilm protected bacteria and determine the minimum biofilm eradication concentration (MBEC) of peptides. Three independent experiments were conducted to ensure accuracy.

Biofilm embedded ST = assay: MBEC Assay; format: cell-based, Salmonella enterica; details: at MICs; untreated 6.46 ± 0.09
Procedure: as §1

commensal bacteria = assay: Peptide activity against commensal bacteria; format: cell-based; details: at MICs
Procedure: Peptide activity against commensal bacteria: Peptides 1, 2, and 4 were used to assess if they would inhibit commensal microbes. The commensal bacteria used along with their culture requirements are described in Table 25. Peptides at their MICs were added to 100 μL of known concentration of commensal bacteria and incubated under their required conditions. OD600 of cultures was measured to assess the effect of peptides on bacterial growth.

ST = format: in vivo, chickens; details: for Reduction of percent of birds positive for ST in the liver: 50 mg/kg twice daily
Procedure: Efficacy of peptides in chickens: To assess the efficacy of peptides against ST in chickens, one-day-old specific pathogen free (SPF) layer chickens from a Salmonella free flock at The Ohio State University were obtained and provided with feed and water ad libitum. Chickens (n=10/group) were treated with P1, P2, or P4 at 50 mg/kg body weight twice-daily doses. Peptides were dissolved in water to reach final concentration of 50 mg/kg and orally administered from day 1 to day 7. Early intestinal colonization is important for poultry health and thus is why peptide treatment was begun at day 1. Birds were challenged with 10^4 CFU of nalidixic acid resistant ST on day 3. At day 10 [7 days post infection (dpi)] chickens were euthanized, and the cecum, liver, and spleen were collected to determine the peptide's ability to reduce ST infection. The cecum was suspended in PBS, homogenized, ten-fold serially diluted, and plated on XLT4 agar plates supplemented with 50 μg/ml nalidixic acid and incubated for 24 h at 37° C. The liver and spleen were individually suspended in PBS and the undiluted homogenized suspension was plated directly and incubated for 24 h at 37° C. One milliliter of the undiluted homogenized liver and spleen was enriched in 9 ml of tetrathionate broth (TTB) for 24 h at 37° C. After incubation they were plated as described above to enumerate ST in each tissue. The body weights of chickens were measured on the day of necropsy (day 10). An untreated positive control group (PC: infected but untreated) and a negative control group (NC: non infected and non-treated) were included in the study. A Mann-Whitney test was used to determine statistical significance (P<0.05) of treatment on ST load in cecum and on body weight.

cecal microbiota = assay: Cecal microbiome analysis (peptides, ST infected); format: in vivo, chickens; details: for Relative Abundance (%) Acinetobacter / Relative Abundance (%) Blautia / Relative Abundance (%) Caproiciproducens / Relative Abundance (%) Enterobacteriaceae (unidentified) / Relative Abundance (%) Epulopiscium / Relative Abundance (%) Lachnospiraceae (unidentified) / Relative Abundance (%) Lachnospiraceae NK4A136 group / Relative Abundance (%) Lactobacillus / Relative Abundance (%) Sellimonas / Relative Abundance (%) [Clostridium] innocuum group / Relative Abundance (%) [Eubacterium] coprostanoligenes group / Relative abundance (%) Anaerotruncus / Relative abundance (%) Clostridium sensu stricto 1 / Relative abundance (%) Enterococcus / Relative abundance (%) Erysipelatoclostridium / Relative abundance (%) Escherichia-Shigella / Relative abundance (%) Flavonifractor / Relative abundance (%) Lachnospiraceae (uncultured) / Relative abundance (%) Oscillibacter / Relative abundance (%) Pediococcus / Relative abundance (%) Ruminiclostridium 5 / Relative abundance (%) Ruminiclostridium 9 / Relative abundance (%) Ruminococcus torques group: genus
Procedure: Cecal microbiome analysis: To evaluate the role P1, P2, and P4 (50 mg/kg) treatment on the cecal microbiome of chickens, 16S rRNA based metagenomic study was conducted as previously described. DNA was extracted from approximately 0.2 g of cecal content using PureLink™ Microbiome DNA Purification Kit (Thermofisher Scientific). After which, RNA was removed with the treatment of RNase A (2 μL of 100 mg/mL solution per sample: Qiagen). NanoDrop 2000c Spectrophotometer (ThermoFisher Scientific) was used to check the quality and measure the quantity of the DNA. The extracted DNA was used in 16S rRNA V4-V5 sequencing done at MCIC (mcic.osu.edu/genomics/illumina-sequencing). Amplicon libraries were prepared using IFU KAPA HiFi HotStart ReadyMixPCR Kit (Roche). PCR products were cleaned using Agencourt AMPure XP beads (BECKMAN COULTER Life Sciences). Nextera XT DNA Library Preparation Kit (Illumina) was used to generate Illumina library and sequencing done with Illumina MiSeq platform generating paired end 300-bp reads. QIIME 2 (Quantitative Insights Into Microbial Ecology) bioinformatics platform (qiime2.org/) was used to conduct metagenomic analysis. Quality control of the raw reads was performed using FastQC 0.11.8 (Babraham Bioinformatics). Trimmomatic-0.33 was used to trim the adaptor and other Illumina-specific sequences (www.usadellab.org/cms/?page=trimmomatic). After which trimmed sequences (fastq.gz) were then imported into QIIME 2 as a manifest file format (PairedEndManifestPhred33V2). DADA2 was then used for the feature table construction and additional filtering of sequences. Taxonomic analysis was performed using Naive Bayes classifiers trained on the Silva 132 99% OTUs (silva-132-99-nb-classifier.qza) database. Phylogenetic diversity was analyzed using align-to-tree-mafft-fasttree pipeline. Additionally, Shannon's diversity index (alpha diversity) and Bray-Curtis distance (beta diversity) were analyzed using core-metrics-phylogenetic pipeline (docs.qiime2.org/2019.7/tutorials/moving-pictures/). Alpha and beta diversity statistical significance were analyzed using Kruskal-Wallis and PERMANOVA tests (P<0.05), respectively. The statistical difference (P<0.05) in the taxonomic composition between the groups was determined using Mann Whitney Test.

Row | Substance | Biofilm embedded SE (Biofilm embedded SE) | Biofilm embedded ST (Biofilm embedded ST) | Growth of Bacteroides thetaiotaomicron (commensal bacteria) | Growth of E. coli Nissle 1917 and E. coli G58-1 (commensal bacteria) | Growth of Gram-positive commensal bacteria (commensal bacteria) | Reduction of percent of birds positive for ST in the liver (ST) | Relative Abundance (%) Acinetobacter (cecal microbiota) | Relative Abundance (%) Blautia (cecal microbiota) | Relative Abundance (%) Caproiciproducens (cecal microbiota) | Relative Abundance (%) Enterobacteriaceae (unidentified) (cecal microbiota) | Relative Abundance (%) Epulopiscium (cecal microbiota) | Relative Abundance (%) Lachnospiraceae (unidentified) (cecal microbiota) | Relative Abundance (%) Lachnospiraceae NK4A136 group (cecal microbiota) | Relative Abundance (%) Lactobacillus (cecal microbiota) | Relative Abundance (%) Sellimonas (cecal microbiota) | Relative Abundance (%) [Clostridium] innocuum group (cecal microbiota) | Relative Abundance (%) [Eubacterium] coprostanoligenes group (cecal microbiota) | Relative abundance (%) Anaerotruncus (cecal microbiota) | Relative abundance (%) Clostridium sensu stricto 1 (cecal microbiota) | Relative abundance (%) Enterococcus (cecal microbiota) | also measured
1 | PDENK [Peptide P2, PDENK] | 0.00 ± 0.00 Log CFU/mL | 0.00 ± 0.00 Log CFU/ml | no inhibition | inhibited | No growth inhibition | 30% | 0.00% | 0.00% | 0.63% | 6.22% | 0.17% | 37.10% | 0.00% | 5.57% | 1.76% | 0.00% | 0.00% | 0.00% | 0.00% | 0.00% | Reduction of ST colonization in the cecum (ST; 50 mg/kg twice daily 7 days, day 10 (7 dpi)): 1.8 logs; Relative abundance (%) Erysipelatoclostridium (cecal microbiota): 5.56%; Relative abundance (%) Escherichia-Shigella (cecal microbiota): 13.25%; Relative abundance (%) Flavonifractor (cecal microbiota): 2.33%; Relative abundance (%) Lachnospiraceae (uncultured) (cecal microbiota): 4.21%; Relative abundance (%) Oscillibacter (cecal microbiota): 0.00%; Relative abundance (%) Pediococcus (cecal microbiota): 0.00%; Relative abundance (%) Ruminiclostridium 5 (cecal microbiota): 0.00%; Relative abundance (%) Ruminiclostridium 9 (cecal microbiota): 0.00† %; Relative abundance (%) Ruminococcus torques group (cecal microbiota): 23.19%
2 | MLNERVK [Peptide P4, MLNERVK] | 0.00 ± 0.00 Log CFU/mL | 0.00 ± 0.00 Log CFU/ml | no inhibition | inhibited | No growth inhibition | 30% | 0.00% | 1.60% | 0.00% | 4.54% | 0.00% | 44.19% | 0.53% | 7.01% | 0.57% | 0.00% | 0.00% | 0.48% | 0.00% | 0.00% | Relative abundance of Lachnospiraceae (cecal microbiota; family, negative control 53%): 78%; Relative abundance (%) Erysipelatoclostridium (cecal microbiota): 3.51%; Relative abundance (%) Escherichia-Shigella (cecal microbiota): 3.16† %; Relative abundance (%) Flavonifractor (cecal microbiota): 1.20%; Relative abundance (%) Lachnospiraceae (uncultured) (cecal microbiota): *11.71%; Relative abundance (%) Oscillibacter (cecal microbiota): 1.35%; Relative abundance (%) Pediococcus (cecal microbiota): 0.75%; Relative abundance (%) Ruminiclostridium 5 (cecal microbiota): 0.00%; Relative abundance (%) Ruminiclostridium 9 (cecal microbiota): 0.13† %; Relative abundance (%) Ruminococcus torques group (cecal microbiota): 19.27%
